Holding throughout (format): physicochemical
Data set [1] in a line: Off-line XRD crystallinity detection of PRX / Kollidon VA64 mixtures (Bruker instrument). The following applies: in Kollidon VA64, milled samples, no crystallinity detected at 25 wt %. As to the method: The samples were analysed by a UV/vis spectrometer in transmission mode (FIG. 1) and an XRD spectrum of the same samples was also obtained for comparison and verification (FIG. 2). The XRD samples required milling and analysis offline whereas UV/vis has the advantages that it can be performed rapidly in-line without milling.
XRD spectra were obtained on a Bruker instrument for each of pure solid PRX, Kollidon VA64, and 20, 25 and 30 wt % PRX mixtures separately. […] Only at 30 wt % PRX loading, well above the maximum solubility when there is substantially higher crystallinity, does the XRD spectra first show peaks that correlate with the pure XRD spectra of PRX.

Data set [2] is described as follows: In-line UV/vis transmission crystallinity detection of piroxicam in Kollidon VA64 (solubility maximum, twin-screw extruder). The following applies: in Kollidon VA64, hot melt extrusion, amorphous, homogeneous and transparent below this loading.
From the text: A twin-screw extruder was used to assess the solubility maximum for a mixture of the non-steroidal anti-inflammatory drug (NSAID) piroxicam (PRX) and the carrier polymer Kollidon VA64. The mixture was continuously analysed while traversing the extruder screw using a system of in-line UV/vis spectrometers and the input of the PRX was adjusted until crystallinity was first detected.
UV/vis transmission spectra were obtained for 15, 18, 20, 23 and 25 wt % PRX samples.
The nature of data set [3]: Particle size distribution of the components (Mastersizer laser diffraction). As to the method: In some cases, the particle size of the dispersion or solution is measured prior to being subjected to UV/vis spectroscopy. Known methods of sizing the dispersion or solution include sieve analysis, direct imaging and laser diffraction. In the present disclosure, a Mastersizer (Malvern Instruments) laser diffraction device was used.

Consider two compounds from patent publication US12313613B2, “Method of testing crystallinity in amorphous pharmaceutical compositions” (ColVisTec AG, priority 2019, dated 2025).

`CN1C(C(=O)Nc2ccccn2)=C(O)c2ccccc2S1(=O)=O` [PRX, 4-hydroxy-2-methyl-1,1-dioxo-N-pyridin-2-yl-1$1^6,2-benzothiazine-3-carboxamide]: the “PRX loading at which XRD spectra first show peaks of crystalline PRX” value in data set [1] turned out to be 30 wt %. For the same compound, the “PRX loading at which the first microcrystalline domains are observed (solubility maximum in carrier)” value in data set [2] worked out at 25 wt %.
In data set [3], `Cc1cc(C#N)cc(C)c1Oc1nc(Nc2ccc(C#N)cc2)nc(N)c1Br` [crystalline etravirine (ETR), 4-[6-amino-5-bromo-2-(4-cyanoanilino)pyrimidin-4-yl]oxy-3,5-dimethylbenzonitrile] showed a D10 of 8 μm, a D50 of 26 μm and a D90 of 87 μm.
